Marks after values point to notes of the source that are not given here.
Experiment: Fatty acid concentration and composition of plasma lipid subfractions (GC) of Compound A-treated DIO mice
Type: in vivo, mouse
Description: FIG. 16(b) provides fatty acid composition of total plasma and each of the 4 plasma lipid subfractions of vehicle treated (WT) and 30 mg/kg Compound A-treated WT DIO mice (WT+A). (a-b) n=3 samples per group (each sample pooled from 2 mice). (a) Data are shown as minimum to maximum. t-test *P<0.05, **P<0.01, ***P<0.001.

[1] = DIO mouse plasma, Cholesterol ester, 30 mg/kg, GC, mean
[2] = DIO mouse plasma, Cholesterol ester, 30 mg/kg, GC, mean % composition
[3] = DIO mouse plasma, Free fatty acids, 30 mg/kg, GC, mean
[4] = DIO mouse plasma, Free fatty acids, 30 mg/kg, GC, mean % composition
[5] = DIO mouse plasma, Phospholipids, 30 mg/kg, GC, mean
[6] = DIO mouse plasma, Phospholipids, 30 mg/kg, GC, mean % composition

SMILES: COc1ccn2c(=O)c(-c3cnn(CC(F)(F)C(F)(F)F)c3)c(C(F)(F)F)nc2c1 [Compound A, 8-methoxy-3-(1-(2,2,3,3,3-pentafluoropropyl)-1H-pyrazol-4-yl)-2-(trifluoromethyl)-4H-pyrido[1,2-a]pyrimidin-4-one]
- EPA/AA ratio in all four lipid subfractions (Compound A-treated DIO mice, plasma): increased
- C14:0 concentration, Cholesterol ester [1]: 29.9 µg/mL
- C16:0 concentration, Cholesterol ester [1]: 90.5 µg/mL
- C16:1n7 concentration, Cholesterol ester [1]: 27.7 µg/mL
- C16:1n7t concentration, Cholesterol ester [1]: 2.6 µg/mL
- C18:0 concentration, Cholesterol ester [1]: 50.3 µg/mL
- C18:1n9 concentration, Cholesterol ester [1]: 113 µg/mL
- C18:1t concentration, Cholesterol ester [1]: 8.1 µg/mL
- C18:2n6 concentration, Cholesterol ester [1]: 516 µg/mL
- C18:2n6t concentration, Cholesterol ester [1]: 10.4* μg mL^−1
- C18:3n3 concentration, Cholesterol ester [1]: 3.0 µg/mL
- C18:3n6 concentration, Cholesterol ester [1]: 20.4* μg mL^−1
- C20:0 concentration, Cholesterol ester [1]: 1.2 µg/mL
- C20:1n9 concentration, Cholesterol ester [1]: 0.6 µg/mL
- C20:2n6 concentration, Cholesterol ester [1]: 1.4 µg/mL
- C20:3n6 concentration, Cholesterol ester [1]: 124*** μg mL^−1
- C20:5n3 concentration, Cholesterol ester [1]: 2.8* μg mL^−1
- C22:0 concentration, Cholesterol ester [1]: 1.3 µg/mL
- C22:4n6 concentration, Cholesterol ester [1]: 1.5 µg/mL
- C22:5n3 concentration, Cholesterol ester [1]: 31.0 µg/mL
- C22:5n6 concentration, Cholesterol ester [1]: 1.7 µg/mL
- C22:6n3 concentration, Cholesterol ester [1]: 37.4* μg mL^−1
- C24:0 concentration, Cholesterol ester [1]: 1.2 µg/mL
- C24:1n9 concentration, Cholesterol ester [1]: 2.6 µg/mL
- Total fatty acids concentration, Cholesterol ester [1]: 1150* μg mL^−1
- C14:0 composition, Cholesterol ester [2]: 2.61* %
- C16:0 composition, Cholesterol ester [2]: 7.89*** %
- C16:1n7 composition, Cholesterol ester [2]: 2.39* %
- C16:1n7t composition, Cholesterol ester [2]: 0.23** %
- C18:0 composition, Cholesterol ester [2]: 4.41* %
- C18:1n9 composition, Cholesterol ester [2]: 9.73* %
- C18:1t composition, Cholesterol ester [2]: 0.7*** %
- C18:2n6 composition, Cholesterol ester [2]: 44.7*** %
- C18:2n6t composition, Cholesterol ester [2]: 0.9*** %
- C18:3n3 composition, Cholesterol ester [2]: 0.27%
- C18:3n6 composition, Cholesterol ester [2]: 1.76*** %
- C20:0 composition, Cholesterol ester [2]: 0.1%
- C20:1n9 composition, Cholesterol ester [2]: 0.05%
- C20:2n6 composition, Cholesterol ester [2]: 0.12%
- C20:3n6 composition, Cholesterol ester [2]: 10.8*** %
- C20:4n6 composition, Cholesterol ester [2]: 6.34*** %
- C20:5n3 composition, Cholesterol ester [2]: 0.25%
- C22:0 composition, Cholesterol ester [2]: 0.12%
- C22:4n6 composition, Cholesterol ester [2]: 0.13%
- C22:5n3 composition, Cholesterol ester [2]: 2.71* %
- C22:5n6 composition, Cholesterol ester [2]: 0.14%
- C22:6n3 composition, Cholesterol ester [2]: 3.26** %
- C24:0 composition, Cholesterol ester [2]: 0.11%
- C24:1n9 composition, Cholesterol ester [2]: 0.23%
- C14:0 concentration, Free fatty acids [3]: 18.8 µg/mL
- C16:0 concentration, Free fatty acids [3]: 132.7 µg/mL
- C16:1n7 concentration, Free fatty acids [3]: 8.7 µg/mL
- C16:1n7t concentration, Free fatty acids [3]: 0.5 µg/mL
- C18:0 concentration, Free fatty acids [3]: 76.8 µg/mL
- C18:1n9 concentration, Free fatty acids [3]: 98.1* μg mL^−1
- C18:1t concentration, Free fatty acids [3]: 2.5 µg/mL
- C18:2n6 concentration, Free fatty acids [3]: 38.5 µg/mL
- C18:2n6t concentration, Free fatty acids [3]: 3.3 µg/mL
- C18:3n3 concentration, Free fatty acids [3]: 1.6 µg/mL
- C18:3n6 concentration, Free fatty acids [3]: 1.2 µg/mL
- C20:0 concentration, Free fatty acids [3]: 1.8 µg/mL
- C20:1n9 concentration, Free fatty acids [3]: 2.8 µg/mL
- C20:2n6 concentration, Free fatty acids [3]: 1.1 µg/mL
- C20:3n6 concentration, Free fatty acids [3]: 8.1** μg mL^−1
- C20:4n6 concentration, Free fatty acids [3]: 2.9*** μg mL^−1
- C20:5n3 concentration, Free fatty acids [3]: 8.3 µg/mL
- C22:0 concentration, Free fatty acids [3]: 1.4 µg/mL
- C22:4n6 concentration, Free fatty acids [3]: 1.1* μg mL^−1
- C22:5n3 concentration, Free fatty acids [3]: 32.0 µg/mL
- C22:5n6 concentration, Free fatty acids [3]: 0.4 µg/mL
- C22:6n3 concentration, Free fatty acids [3]: 5.3 µg/mL
- C24:0 concentration, Free fatty acids [3]: 1.0 µg/mL
- C24:1n9 concentration, Free fatty acids [3]: 1.8 µg/mL
- Total fatty acids concentration, Free fatty acids [3]: 451 µg/mL
- C14:0 composition, Free fatty acids [4]: 4.15%
- C16:0 composition, Free fatty acids [4]: 29.5%
- C16:1n7 composition, Free fatty acids [4]: 1.91%
- C16:1n7t composition, Free fatty acids [4]: 0.11%
- C18:0 composition, Free fatty acids [4]: 17.1* %
- C18:1n9 composition, Free fatty acids [4]: 21.8%
- C18:1t composition, Free fatty acids [4]: 0.57%
- C18:2n6 composition, Free fatty acids [4]: 8.61%
- C18:2n6t composition, Free fatty acids [4]: 0.76%
- C18:3n3 composition, Free fatty acids [4]: 0.34%
- C18:3n6 composition, Free fatty acids [4]: 0.26* %
- C20:0 composition, Free fatty acids [4]: 0.39%
- C20:1n9 composition, Free fatty acids [4]: 0.61%
- C20:2n6 composition, Free fatty acids [4]: 0.25%
- C20:3n6 composition, Free fatty acids [4]: 1.82%
- C20:4n6 composition, Free fatty acids [4]: 0.64*** %
- C20:5n3 composition, Free fatty acids [4]: 1.75%
- C22:0 composition, Free fatty acids [4]: 0.31%
- C22:4n6 composition, Free fatty acids [4]: 0.25* %
- C22:5n3 composition, Free fatty acids [4]: 7.14%
- C22:5n6 composition, Free fatty acids [4]: 0.10%
- C22:6n3 composition, Free fatty acids [4]: 1.15%
- C24:0 composition, Free fatty acids [4]: 0.22%
- C24:1n9 composition, Free fatty acids [4]: 0.39%
- C14:0 concentration, Phospholipids [5]: 5.3 µg/mL
- C16:0 concentration, Phospholipids [5]: 591 µg/mL
- C16:1n7 concentration, Phospholipids [5]: 7.7 µg/mL
- C18:0 concentration, Phospholipids [5]: 302*** μg mL^−1
- C18:1n9 concentration, Phospholipids [5]: 260 µg/mL
- C18:1t concentration, Phospholipids [5]: 3.9 µg/mL
- C18:2n6 concentration, Phospholipids [5]: 400** μg mL^−1
- C18:2n6t concentration, Phospholipids [5]: 4.5 µg/mL
- C18:3n3 concentration, Phospholipids [5]: 1.0 µg/mL
- C18:3n6 concentration, Phospholipids [5]: 4.3 µg/mL
- C20:0 concentration, Phospholipids [5]: 1.4** μg mL^−1
- C20:1n9 concentration, Phospholipids [5]: 5.8 µg/mL
- C20:2n6 concentration, Phospholipids [5]: 9.0 µg/mL
- C20:3n6 concentration, Phospholipids [5]: 382*** μg mL^−1
- C20:4n6 concentration, Phospholipids [5]: 31.2*** μg mL^−1
- C20:5n3 concentration, Phospholipids [5]: 1.2* μg mL^−1
- C22:0 concentration, Phospholipids [5]: 1.8 µg/mL
- C22:4n6 concentration, Phospholipids [5]: 2.1*** μg mL^−1
- C22:5n3 concentration, Phospholipids [5]: 12.8 µg/mL
- C22:5n6 concentration, Phospholipids [5]: 1.8*** μg mL^−1
- C22:6n3 concentration, Phospholipids [5]: 70.2** μg mL^−1
- C24:0 concentration, Phospholipids [5]: 1.0 µg/mL
- C24:1n9 concentration, Phospholipids [5]: 3.3 µg/mL
- Total fatty acids concentration, Phospholipids [5]: 2105* μg mL^−1
- C14:0 composition, Phospholipids [6]: 0.25* %
- C16:0 composition, Phospholipids [6]: 28.1** %
- C16:1n7 composition, Phospholipids [6]: 0.36** %

From patent US20260183297A1, “SELECTION OF PATIENTS FOR THE TREATMENT OF FADS1-MEDIATED DISEASES OR DISORDERS USING FADS-1 INHIBITORS” (AMGEN INC., priority 2022, published 2026)
